For 52 molecules, LAP4-GFP fluorescence (kMESF) results are on record in PubChem BioAssay AID2745 (NMMLSC, 2010).

The nature of this assay: concentration series on yeast TOR reporter LAP4 – cell-based, MLPCN hits, flow cytometry, dose response (AID 2745).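 Note: yeast exposed to compound for three hours at 30 degrees.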 Conditions: S. cerevisiae LAP4-GFP reporter, flow cytometry fluorescence; at 33 µM (top of the series).

Where “and” joins values, the source holds several entries; their conditions need not be identical. Equal values may be shown once. Calls of active or inactive are those of the source. The rule behind the calls is not given here.

For `COc1ccc(OC)c(S(=O)(=O)ON2C(=O)c3ccccc3C2=O)c1`, the LAP4-GFP fluorescence (kMESF) was 1.75 kMESF (inactive).
Next, `O=C(/C=C/Sc1ncn[nH]1)c1ccc(Cl)cc1`: 15.9 kMESF (inactive); `CCc1nc2ccccc2c(=O)n1NC(=O)c1c(O)c2cccc3c2n(c1=O)CCC3`: 3.04 kMESF (inactive).
With `COc1cc(N=c2ssnc2Cl)cc(OC)c1`, the LAP4-GFP fluorescence (kMESF) was 11.3 kMESF (inactive).
Consider `N/C(=N\OC(=O)c1ccc(Cl)cc1Cl)c1ccccc1`, for which the LAP4-GFP fluorescence (kMESF) was 12.4 kMESF (inactive).
`CCCCCn1c(=O)c(C(=O)Nc2nc3ccccc3[nH]2)c(O)c2ccccc21`: the LAP4-GFP fluorescence (kMESF) is 2.43 kMESF (inactive).
For `CCCc1cc(N2CCN(c3ccccn3)CC2)n2nc(C)c(-c3ccccc3)c2n1`, the LAP4-GFP fluorescence (kMESF) is 5.75 kMESF (inactive).
Consider `O=C1c2ccccc2C(=O)N1OS(=O)(=O)c1ccccc1`, for which the LAP4-GFP fluorescence (kMESF) was 8.7 kMESF (inactive).
`C#CCOCCOCCOCCNc1nc(N2CCN(C(=O)CCCCCCCCCCNC(=O)[C@@H](CCC(=O)O)n3cc(CCCCCN)nn3)CC2)nc(N2CCN(C(=O)CCCCCCCCCCNC(=O)[C@H](CCCCN)n3cc(C[C@@H](C)CC)nn3)CC2)n1`: the LAP4-GFP fluorescence (kMESF) is 6.47 kMESF (inactive).
As for `CCc1ccc(C(=O)/C=C/c2ccc([N+](=O)[O-])o2)cc1`, the LAP4-GFP fluorescence (kMESF) was 10.5 kMESF (inactive).
As to `O=C1N(c2ccccc2C(F)(F)F)O[C@@]1(c1ccccc1)C1CCCC1`, the LAP4-GFP fluorescence (kMESF) was 2.93 kMESF (inactive).
For the molecule `Cc1sc(/C=C2\C(=O)ON=C2c2ccccc2)cc1Br`, the LAP4-GFP fluorescence (kMESF) is 2.73 kMESF (inactive).
The result for `Nc1nc2ncc(CNc3ccc(C(=O)N[C@@H](CCC(=O)O)C(=O)O)cc3)nc2c(=O)[nH]1` reads 4.01 kMESF (inactive); that for `O=C1N(c2ccccc2C(F)(F)F)OC1(Cc1ccccc1)c1ccccc1` (configuration not stated), 4.48 kMESF (inactive); that for `CCCc1ccc(OCC(=O)NNC(=S)NC(=O)c2ccco2)cc1`, 11.2 kMESF (inactive).
Take `COc1cc(/C=C2/C(=O)c3cccc([N+](=O)[O-])c3C2=O)c(Br)cc1O`: the LAP4-GFP fluorescence (kMESF) is 3.64 kMESF (inactive).
The result for `COc1ccccc1NC1=C(Cl)C(=O)N(c2ccccc2)C1=O` reads 2.98 kMESF (inactive); that for `CC(=O)OC[C@]12CC[C@H]3[C@@](C)(CC[C@H]4C(C)(C)CCC[C@]34C)[C@@H]1C[C@H](C1=CC(=O)O[C@@H]1OC(C)=O)O2`, 13.6 kMESF (inactive); that for `COc1ccccc1C(=O)NNC(=S)NC(=O)c1ccco1`, 13.2 kMESF (inactive).
As to `O=C1c2ccccc2C(=O)N1OS(=O)(=O)c1ccc(F)cc1`, the LAP4-GFP fluorescence (kMESF) is 9.97 kMESF (inactive).
With `O=C(OCC(=O)N1CCN(C(=O)c2ccco2)CC1)c1cc(-c2ccccc2)nc2ccccc12`, the LAP4-GFP fluorescence (kMESF) is 10.4 kMESF (inactive) and 6.1 kMESF (inactive).
As to `CCCN1CCc2c(sc(NC(=S)NC(=O)c3ccccc3)c2C#N)C1`, the LAP4-GFP fluorescence (kMESF) is 7.91 kMESF (inactive).
Regarding `O=C(OCC(=O)N1CCN(C(=O)c2ccco2)CC1)c1cc(-c2ccc(Cl)c(Cl)c2Cl)nc2ccccc12`, the LAP4-GFP fluorescence (kMESF) was 4.61 kMESF (inactive).
For the molecule `CC(C)C(=O)NC(c1cccs1)c1cc([N+](=O)[O-])c2cccnc2c1O` (configuration not stated), the LAP4-GFP fluorescence (kMESF) is 10.5 kMESF (inactive).
For the molecule `Cc1ccc(/C=C2\C(=O)NC(=S)N(c3ccccc3F)C2=O)s1`, the LAP4-GFP fluorescence (kMESF) is 5.57 kMESF (inactive).
As for `CC1(C(=O)NC(=S)NNC(=O)c2ccncc2)CCCCC1`, the LAP4-GFP fluorescence (kMESF) is 4.99 kMESF (inactive).
As to `CCOc1ccc(N/N=C(/C#N)C(N)=O)cc1`, the LAP4-GFP fluorescence (kMESF) was 9.57 kMESF (inactive).
Regarding `CC[C@]1(c2ccccc2OC)ON(c2ccccc2C(F)(F)F)C1=O`, the LAP4-GFP fluorescence (kMESF) was 7.52 kMESF (inactive).
For `[O-][n+]1cccc2c(Br)cc(Br)c(O)c21`, the LAP4-GFP fluorescence (kMESF) is 12.9 kMESF (inactive).
`COc1ccc(N2C(=O)C(Cl)=C(Nc3c(C)n(C)n(-c4ccccc4)c3=O)C2=O)cc1`: the LAP4-GFP fluorescence (kMESF) was 4.31 kMESF (inactive).
In the case of `O=c1cc(-c2ccccc2)cc(-c2ccccc2)n1O`, the LAP4-GFP fluorescence (kMESF) is 5.91 kMESF (inactive).
The result for `C#CCOCCOCCOCCNc1nc(N2CCN(C(=O)CCCCCCCCCCNC(=O)[C@H](CCCCN)n3cc(CCCC(=O)O)nn3)CC2)nc(N2CCN(C(=O)CCCCCCCCCCNC(=O)[C@H](CCCN=C(N)N)n3cc(C[C@@H](C)CC)nn3)CC2)n1` reads 5.16 kMESF (inactive); that for `O=C1C(Cl)=C(NCCc2ccccc2)C(=O)N1CCc1ccccc1`, 5.91 kMESF (inactive).
As for `Cc1cc(=O)n2c3c(sc2n1)C(=O)N(Cc1ccccc1)C3=O`, the LAP4-GFP fluorescence (kMESF) was 9.31 kMESF (inactive).
On to `COc1cc(NC(=O)c2ccccc2[N+](=O)[O-])ccc1NC(=O)c1cc2ccccc2o1`, for which the LAP4-GFP fluorescence (kMESF) was 3.31 kMESF (inactive).
`CN(C)/C=C/C(=O)c1ccc(-c2ccc(Cl)cc2Cl)o1`: the LAP4-GFP fluorescence (kMESF) was 4.39 kMESF (inactive).
As for `C#CCOCCOCCOCCNc1nc(N2CCN(C(=O)CCCCCCCCCCNC(=O)[C@H](CCCCN)n3cc(CCO)nn3)CC2)nc(N2CCN(C(=O)CCCCCCCCCCNC(=O)[C@H](CCCN=C(N)N)n3cc(C[C@@H](C)CC)nn3)CC2)n1`, the LAP4-GFP fluorescence (kMESF) was 6.17 kMESF (inactive).
As to `COc1ccc(C(=O)NC(=S)NNC(=O)c2cnccn2)cc1OC`, the LAP4-GFP fluorescence (kMESF) is 9.2 kMESF (inactive).
Turning to `COc1ccc2c(/C=C/c3cc[n+](C)cc3)c[nH]c2c1`, the LAP4-GFP fluorescence (kMESF) is 3.71 kMESF (inactive).
With `Oc1c(CN2CCCCC2)cc(Br)c2cccnc12`, the LAP4-GFP fluorescence (kMESF) was 16 kMESF (inactive).
Regarding `C[n+]1ccc(/C=C/c2c[nH]c3ccccc23)cc1`, the LAP4-GFP fluorescence (kMESF) is 9.29 kMESF (inactive).
Turning to `Cc1ccc(C(=O)/C=C/C(=O)c2ccc(C)cc2)cc1`, the LAP4-GFP fluorescence (kMESF) is 6.7 kMESF (inactive).
With `COc1ccc(N=Cc2nc(-c3ccccc3)oc2OC(C)=O)cc1`, the LAP4-GFP fluorescence (kMESF) is 4.93 kMESF (inactive).
Consider `CN(C)NC(=S)Nc1ccc(S(=O)(=O)N2CCCCC2)cc1`, for which the LAP4-GFP fluorescence (kMESF) is 3.13 kMESF (inactive).
Next, `Cc1cccc(OCCN2CSC(=S)N(C)C2)c1`: 9.83 kMESF (inactive).
Next, `COc1cc(NC(=O)c2cccc(C)c2)ccc1NC(=O)c1cc2ccccc2o1`: 3.31 kMESF (inactive); `C[C@H]1C[C@@H](C)C(=O)[C@@H]([C@H](O)CC2CC(=O)NC(=O)C2)C1`: 7.12 kMESF (inactive); `O=C(Oc1cccc2cccnc12)c1ccc(Br)o1`: 3.74 kMESF (inactive).
`Fc1cccc(Nc2ncnc3c2cnn3-c2ccccc2)c1`: the LAP4-GFP fluorescence (kMESF) was 5.86 kMESF (inactive).
As to `C=CCOc1ccc(C(=O)/C=C2/C(=O)Nc3ccccc32)cc1`, the LAP4-GFP fluorescence (kMESF) was 7.99 kMESF (inactive).
Take `Cc1cccc(N=C2NC(=O)/C(=C/C=C/c3ccco3)S2)c1C`: the LAP4-GFP fluorescence (kMESF) was 13.7 kMESF (inactive).
For the molecule `COc1ccc(-c2cc3nc4n(c(=O)c3s2)CCC4)cc1`, the LAP4-GFP fluorescence (kMESF) is 3.68 kMESF (inactive).
